Data taken from patent US9617602B2, “Methods and compositions for determining resistance to androgen receptor therapy” (Aragon Pharmaceuticals, Inc., priority 2012, dated 2017).

Experiments:
LNCaP cells = test: Proliferation assay (CellTiter-Glo), agonist and antagonist mode; assay type: cell-based, human
LNCaP/AR(cs) cells = test: Endogenous gene transcriptional assay (real-time PCR of androgen responsive genes); assay type: cell-based, human
Method: Total RNA was isolated using the Aurum™ total RNA isolation kit (BIO-RAD, Hercules, Calif.). RNA (1 μg) was reverse transcribed using the iScript cDNA synthesis kit (BIO-RAD, Hercules, Calif.) to produce cDNA. Real-time PCR was performed using the Applied Biosystems 7900HT instrument and SYBR Green PCR Master Mix (Applied Biosystems, Foster City, Calif.). PCR reactions were performed in 6 μL according to the manufacturer's protocol and a thermocycle protocol of 95° C. for 10 minutes followed by 40 cycles of 95° C. for 15 seconds and 58° C. for 1 minute. Androgen responsive gene (PSA, SLUG, TMPRSS2, STEAP4, FKBP5, ORM1, NOV, FASN, NKX3.1, AMIGO2, BDNF, CAMK2N1, HPGD, NCAPD3, PLD1) expression was normalized to GAPDH expression and expressed relative to vehicle treatment of the parental cell line.
Gene expression was normalized to GAPDH as described above.

[1] = Table 4A, 1 nM R1881 or 30 μM compound, vehicle=1.00

CNC(=O)c1ccc(N2C(=S)N(c3cnc(C#N)c(C(F)(F)F)c3)C(=O)C23CCC3)cc1F [ARN-509]
viability at 0.0001 µM (LNCaP cells; Homo sapiens, 168 h, read-out: Antagonist Proliferation Assay (% Viability)): < 30% | Agonist Proliferation Assay (% Viability) (LNCaP cells; [Antagonists] = 10 μM, 7 days): + (‘+’ = <30) | AMIGO2 expression, antagonist transcription (LNCaP/AR(cs) cells; +1 nM R1881, 0.3 μM): 0.30 | BDNF expression, antagonist transcription (LNCaP/AR(cs) cells; +1 nM R1881, 0.3 μM): 0.43 | CAM2KN1 expression, antagonist transcription (LNCaP/AR(cs) cells; +1 nM R1881, 0.3 μM): 0.04 | FASN expression, antagonist transcription (LNCaP/AR(cs) cells; +1 nM R1881, 0.3 μM): 1.92 | FKBP5 expression, antagonist transcription (LNCaP/AR(cs) cells; +1 nM R1881, 0.3 μM): 33.14 | HPGD expression, antagonist transcription (LNCaP/AR(cs) cells; +1 nM R1881, 0.3 μM): 105.97 | NCAPD3 expression, antagonist transcription (LNCaP/AR(cs) cells; +1 nM R1881, 0.3 μM): 43.93 | NKX3.1 expression, antagonist transcription (LNCaP/AR(cs) cells; +1 nM R1881, 0.3 μM): 8.32 | NOV expression, antagonist transcription (LNCaP/AR(cs) cells; +1 nM R1881, 0.3 μM): 0.03 | ORM1 expression, antagonist transcription (LNCaP/AR(cs) cells; +1 nM R1881, 0.3 μM): 5100.90 | PLD1 expression, antagonist transcription (LNCaP/AR(cs) cells; +1 nM R1881, 0.3 μM): 0.02 | PSA expression, antagonist transcription (LNCaP/AR(cs) cells; +1 nM R1881, 0.3 μM): 19.09 | SLUG expression, antagonist transcription (LNCaP/AR(cs) cells; +1 nM R1881, 0.3 μM): 71.33 | STEAP4 expression, antagonist transcription (LNCaP/AR(cs) cells; +1 nM R1881, 0.3 μM): 1019.98 | TMPRSS2 expression, antagonist transcription (LNCaP/AR(cs) cells; +1 nM R1881, 0.3 μM): 19.07 | AMIGO2 expression, antagonist transcription (LNCaP/AR(cs) cells; +1 nM R1881, 1 μM): 0.31 | BDNF expression, antagonist transcription (LNCaP/AR(cs) cells; +1 nM R1881, 1 μM): 0.35 | CAM2KN1 expression, antagonist transcription (LNCaP/AR(cs) cells; +1 nM R1881, 1 μM): 0.06 | FASN expression, antagonist transcription (LNCaP/AR(cs) cells; +1 nM R1881, 1 μM): 1.52 | FKBP5 expression, antagonist transcription (LNCaP/AR(cs) cells; +1 nM R1881, 1 μM): 22.49 | HPGD expression, antagonist transcription (LNCaP/AR(cs) cells; +1 nM R1881, 1 μM): 76.25 | NCAPD3 expression, antagonist transcription (LNCaP/AR(cs) cells; +1 nM R1881, 1 μM): 32.00 | NKX3.1 expression, antagonist transcription (LNCaP/AR(cs) cells; +1 nM R1881, 1 μM): 9.92 | NOV expression, antagonist transcription (LNCaP/AR(cs) cells; +1 nM R1881, 1 μM): 0.09 | ORM1 expression, antagonist transcription (LNCaP/AR(cs) cells; +1 nM R1881, 1 μM): 2679.73 | PLD1 expression, antagonist transcription (LNCaP/AR(cs) cells; +1 nM R1881, 1 μM): 0.02 | PSA expression, antagonist transcription (LNCaP/AR(cs) cells; +1 nM R1881, 1 μM): 21.75 | SLUG expression, antagonist transcription (LNCaP/AR(cs) cells; +1 nM R1881, 1 μM): 62.00 | STEAP4 expression, antagonist transcription (LNCaP/AR(cs) cells; +1 nM R1881, 1 μM): 742.61 | TMPRSS2 expression, antagonist transcription (LNCaP/AR(cs) cells; +1 nM R1881, 1 μM): 24.11 | AMIGO2 expression, antagonist transcription (LNCaP/AR(cs) cells; +1 nM R1881, 3 μM): 0.52 | BDNF expression, antagonist transcription (LNCaP/AR(cs) cells; +1 nM R1881, 3 μM): 0.67 | CAM2KN1 expression, antagonist transcription (LNCaP/AR(cs) cells; +1 nM R1881, 3 μM): 0.19 | FASN expression, antagonist transcription (LNCaP/AR(cs) cells; +1 nM R1881, 3 μM): 1.08 | FKBP5 expression, antagonist transcription (LNCaP/AR(cs) cells; +1 nM R1881, 3 μM): 12.56 | HPGD expression, antagonist transcription (LNCaP/AR(cs) cells; +1 nM R1881, 3 μM): 32.19 | NCAPD3 expression, antagonist transcription (LNCaP/AR(cs) cells; +1 nM R1881, 3 μM): 15.57 | NKX3.1 expression, antagonist transcription (LNCaP/AR(cs) cells; +1 nM R1881, 3 μM): 12.01 | NOV expression, antagonist transcription (LNCaP/AR(cs) cells; +1 nM R1881, 3 μM): 0.31 | ORM1 expression, antagonist transcription (LNCaP/AR(cs) cells; +1 nM R1881, 3 μM): 1031.40 | PLD1 expression, antagonist transcription (LNCaP/AR(cs) cells; +1 nM R1881, 3 μM): 0.04 | PSA expression, antagonist transcription (LNCaP/AR(cs) cells; +1 nM R1881, 3 μM): 23.57 | SLUG expression, antagonist transcription (LNCaP/AR(cs) cells; +1 nM R1881, 3 μM): 50.70 | STEAP4 expression, antagonist transcription (LNCaP/AR(cs) cells; +1 nM R1881, 3 μM): 256.89 | TMPRSS2 expression, antagonist transcription (LNCaP/AR(cs) cells; +1 nM R1881, 3 μM): 23.38 | AMIGO2 expression, antagonist transcription (LNCaP/AR(cs) cells; +1 nM R1881, 10 μM): 0.60 | BDNF expression, antagonist transcription (LNCaP/AR(cs) cells; +1 nM R1881, 10 μM): 0.74 | CAM2KN1 expression, antagonist transcription (LNCaP/AR(cs) cells; +1 nM R1881, 10 μM): 0.43 | FASN expression, antagonist transcription (LNCaP/AR(cs) cells; +1 nM R1881, 10 μM): 0.60 | FKBP5 expression, antagonist transcription (LNCaP/AR(cs) cells; +1 nM R1881, 10 μM): 2.74 | HPGD expression, antagonist transcription (LNCaP/AR(cs) cells; +1 nM R1881, 10 μM): 8.36 | NCAPD3 expression, antagonist transcription (LNCaP/AR(cs) cells; +1 nM R1881, 10 μM): 2.39 | NKX3.1 expression, antagonist transcription (LNCaP/AR(cs) cells; +1 nM R1881, 10 μM): 7.22 | NOV expression, antagonist transcription (LNCaP/AR(cs) cells; +1 nM R1881, 10 μM): 0.86 | ORM1 expression, antagonist transcription (LNCaP/AR(cs) cells; +1 nM R1881, 10 μM): 156.90 | PLD1 expression, antagonist transcription (LNCaP/AR(cs) cells; +1 nM R1881, 10 μM): 0.11 | PSA expression, antagonist transcription (LNCaP/AR(cs) cells; +1 nM R1881, 10 μM): 12.90 | SLUG expression, antagonist transcription (LNCaP/AR(cs) cells; +1 nM R1881, 10 μM): 11.15 | STEAP4 expression, antagonist transcription (LNCaP/AR(cs) cells; +1 nM R1881, 10 μM): 32.98 | TMPRSS2 expression, antagonist transcription (LNCaP/AR(cs) cells; +1 nM R1881, 10 μM): 11.45 | AMIGO2 expression, antagonist transcription (LNCaP/AR(cs) cells; +1 nM R1881, 30 μM): 0.76 | BDNF expression, antagonist transcription (LNCaP/AR(cs) cells; +1 nM R1881, 30 μM): 0.88 | CAM2KN1 expression, antagonist transcription (LNCaP/AR(cs) cells; +1 nM R1881, 30 μM): 0.42 | FASN expression, antagonist transcription (LNCaP/AR(cs) cells; +1 nM R1881, 30 μM): 0.64 | FKBP5 expression, antagonist transcription (LNCaP/AR(cs) cells; +1 nM R1881, 30 μM): 1.08 | HPGD expression, antagonist transcription (LNCaP/AR(cs) cells; +1 nM R1881, 30 μM): 2.78 | NCAPD3 expression, antagonist transcription (LNCaP/AR(cs) cells; +1 nM R1881, 30 μM): 0.96 | NKX3.1 expression, antagonist transcription (LNCaP/AR(cs) cells; +1 nM R1881, 30 μM): 5.49 | NOV expression, antagonist transcription (LNCaP/AR(cs) cells; +1 nM R1881, 30 μM): 0.82 | ORM1 expression, antagonist transcription (LNCaP/AR(cs) cells; +1 nM R1881, 30 μM): 16.42 | PLD1 expression, antagonist transcription (LNCaP/AR(cs) cells; +1 nM R1881, 30 μM): 0.32 | PSA expression, antagonist transcription (LNCaP/AR(cs) cells; +1 nM R1881, 30 μM): 7.20 | SLUG expression, antagonist transcription (LNCaP/AR(cs) cells; +1 nM R1881, 30 μM): 5.49 | STEAP4 expression, antagonist transcription (LNCaP/AR(cs) cells; +1 nM R1881, 30 μM): 6.86 | TMPRSS2 expression, antagonist transcription (LNCaP/AR(cs) cells; +1 nM R1881, 30 μM): 5.94 | AMIGO2 gene expression (LNCaP/AR(cs) cells; [1]): 0.72 | BDNF gene expression (LNCaP/AR(cs) cells; [1]): 0.85 | CAM2KN1 gene expression (LNCaP/AR(cs) cells; [1]): 0.80 | FASN gene expression (LNCaP/AR(cs) cells; [1]): 0.75 | FKBP5 gene expression (LNCaP/AR(cs) cells; [1]): 0.99 | HPGD gene expression (LNCaP/AR(cs) cells; [1]): 1.18 | NCAPD3 gene expression (LNCaP/AR(cs) cells; [1]): 0.91 | NKX3.1 gene expression (LNCaP/AR(cs) cells; [1]): 1.13
